{
  "source": "patent US8377434B2",
  "about": "“Cosmetic composition for exfoliating skin keratin” (Amorepacific Corporation, priority 2006, dated 2013)",
  "test_system": "skin",
  "assay": "in vivo and ex vivo studies of N-acetyl glucosamine on skin",
  "data": [
    {"smiles": "CC(=O)N[C@H]1C(O)O[C@H](CO)[C@@H](O)[C@@H]1O", "note": "(some centres unmarked) [N-acetyl glucosamine]", "values": [
      {"measurement": "production of hyaluronic acid", "value": "promote the production of hyaluronic acid"},
      {"measurement": "improvement of excessive pigmentation, skin tone and barrier function", "setting": "in vivo and ex vivo studies", "value": "effective in improving excessive pigmentation, skin tone and barrier function"}
    ]}
  ]
}
